The NIST ThermoML archive (doi:10.1021/je049579x)
“And” between values parts separate entries of the source, which are not always exact repeats. Equal values may be shown once. Numbers after ± are expanded uncertainties.

Conditions: Crystal, Torsion effusion method

[Br-].[Br-].[Br-].[Lu+3] [lutetium tribromide]
Conditions | vapor or sublimation pressure
903 K | 6.3e-05 ± 1.3e-05 kPa
908 K | 7.9e-05 ± 1.1e-05 kPa
909 K | 9.3e-05 ± 1.1e-05 kPa
910 K | 6.3e-05 ± 9e-06 kPa and 9.3e-05 ± 9e-06 kPa
914 K | 9.3e-05 ± 1.3e-05 kPa
917 K | 9.3e-05 ± 2.2e-05 kPa
918 K | 0.000141 ± 2.3e-05 kPa and 0.000126 ± 2.3e-05 kPa
919 K | 0.000126 ± 1.9e-05 kPa
920 K | 0.00011 ± 1.1e-05 kPa
921 K | 9.3e-05 ± 1e-05 kPa and 0.00011 ± 1.1e-05 kPa
924 K | 0.000141 ± 3.1e-05 kPa
926 K | 0.000126 ± 2.6e-05 kPa and 0.000191 ± 2.6e-05 kPa
927 K | 0.000191 ± 2.6e-05 kPa
929 K | 0.000204 ± 1.7e-05 kPa
930 K | 0.000158 ± 1.8e-05 kPa and 0.000126 ± 1.7e-05 kPa
931 K | 0.000158 ± 4.3e-05 kPa
935 K | 0.000191 ± 1.3e-05 kPa
936 K | 0.000234 ± 4.1e-05 kPa
937 K | 0.000282 ± 4e-05 kPa
938 K | 0.000251 ± 4.2e-05 kPa and 0.000219 ± 4.2e-05 kPa and 0.000282 ± 4.2e-05 kPa
939 K | 0.000282 ± 4.3e-05 kPa
940 K | 0.000191 ± 4.7e-05 kPa
946 K | 0.000316 ± 5.8e-05 kPa
947 K | 0.00038 ± 5.7e-05 kPa
948 K | 0.00038 ± 5.9e-05 kPa [middle of 4 runs]
950 K | 0.000407 ± 6.2e-05 kPa and 0.000282 ± 5.7e-05 kPa
956 K | 0.000427 ± 7.5e-05 kPa and 0.000437 ± 7.4e-05 kPa and 0.000501 ± 7.2e-05 kPa
957 K | 0.000562 ± 7.1e-05 kPa
958 K | 0.00049 ± 7.1e-05 kPa and 0.000468 ± 7.1e-05 kPa
960 K | 0.000603 ± 7.3e-05 kPa and 0.000427 ± 6.3e-05 kPa
965 K | 0.000676 ± 9.7e-05 kPa
966 K | 0.000617 ± 9.7e-05 kPa and 0.000794 ± 9.4e-05 kPa and 0.000724 ± 9.5e-05 kPa
967 K | 0.000661 ± 9.3e-05 kPa and 0.000794 ± 9.5e-05 kPa
968 K | 0.000661 ± 8.9e-05 kPa
969 K | 0.000794 ± 5.8e-05 kPa and 0.000617 ± 5.2e-05 kPa
973 K | 0.000912 ± 0.0001 kPa
975 K | 0.000813 ± 0.00013 kPa
976 K | 0.001096 ± 0.00013 kPa and 0.001047 ± 0.00013 kPa
977 K | 0.001072 ± 0.00017 kPa
978 K | 0.000912 ± 0.0002 kPa and 0.000933 ± 0.0002 kPa
979 K | 0.001096 ± 0.00019 kPa and 0.000912 ± 0.00019 kPa
981 K | 0.001175 ± 4.2e-05 kPa
984 K | 0.001445 ± 0.00017 kPa
986 K | 0.001202 ± 0.00023 kPa and 0.001413 ± 0.00022 kPa and 0.001445 ± 0.00022 kPa
987 K | 0.001318 ± 0.00023 kPa
988 K | 0.001288 ± 0.00022 kPa
989 K | 0.001514 ± 0.00019 kPa and 0.00123 ± 0.00019 kPa and 0.001585 ± 0.00019 kPa
995 K | 0.00195 ± 0.00028 kPa and 0.001778 ± 0.00029 kPa
996 K | 0.001585 ± 0.00029 kPa and 0.00195 ± 0.00028 kPa
997 K | 0.00195 ± 0.00028 kPa and 0.001778 ± 0.00028 kPa
998 K | 0.001778 ± 0.00027 kPa and 0.001622 ± 0.00026 kPa
999 K | 0.002089 ± 0.00027 kPa
1004 K | 0.00257 ± 0.00029 kPa and 0.002399 ± 0.00029 kPa
1006 K | 0.002512 ± 0.00035 kPa and 0.002089 ± 0.00035 kPa and 0.00257 ± 0.00035 kPa
1007 K | 0.002188 ± 0.00033 kPa and 0.002399 ± 0.00034 kPa
1008 K | 0.002399 ± 0.00032 kPa
1009 K | 0.002818 ± 0.0002 kPa
1013 K | 0.003311 ± 0.00034 kPa and 0.00309 ± 0.00034 kPa
1016 K | 0.003162 ± 0.00036 kPa
1017 K | 0.002951 ± 0.00034 kPa and 0.003388 ± 0.00036 kPa
1018 K | 0.003236 ± 0.0003 kPa and 0.00302 ± 0.0003 kPa and 0.003548 ± 0.0003 kPa
1023 K | 0.004074 ± 0.00026 kPa
1026 K | 0.004074 ± 0.00082 kPa
1027 K | 0.003981 ± 0.00082 kPa and 0.003802 ± 0.00082 kPa and 0.005012 ± 0.0008 kPa
1028 K | 0.00389 ± 0.00092 kPa
1038 K | 0.007244 ± 0.0013 kPa

[Cl][Lu]([Cl])[Cl] [lutetium trichloride]
Conditions | vapor or sublimation pressure
942 K | 6.3e-05 ± 6e-06 kPa
945 K | 7.9e-05 ± 1.6e-05 kPa
946 K | 7.9e-05 ± 1.6e-05 kPa
953 K | 7.9e-05 ± 1e-05 kPa
955 K | 0.000126 ± 1.5e-05 kPa
958 K | 0.00011 ± 2.5e-05 kPa
959 K | 0.000126 ± 2.1e-05 kPa
963 K | 0.000141 ± 1.9e-05 kPa
968 K | 0.000158 ± 2.5e-05 kPa
969 K | 0.000191 ± 2.4e-05 kPa
970 K | 0.000158 ± 2.4e-05 kPa
976 K | 0.000219 ± 3.4e-05 kPa
978 K | 0.000251 ± 5.4e-05 kPa
981 K | 0.000251 ± 4.4e-05 kPa
982 K | 0.000316 ± 4.2e-05 kPa
984 K | 0.000347 ± 3.9e-05 kPa
991 K | 0.00038 ± 3.5e-05 kPa and 0.000407 ± 3.5e-05 kPa
992 K | 0.00038 ± 3.4e-05 kPa
998 K | 0.000468 ± 7.9e-05 kPa and 0.00055 ± 7.9e-05 kPa
1001 K | 0.000603 ± 8.2e-05 kPa
1002 K | 0.000562 ± 8.3e-05 kPa
1004 K | 0.000617 ± 9.3e-05 kPa and 0.000575 ± 9.4e-05 kPa
1005 K | 0.000631 ± 9.3e-05 kPa
1012 K | 0.000794 ± 0.00012 kPa
1013 K | 0.000912 ± 0.00011 kPa
1016 K | 0.000933 ± 0.00013 kPa
1017 K | 0.001 ± 0.00014 kPa and 0.000912 ± 0.00015 kPa
1018 K | 0.000977 ± 0.00012 kPa
1024 K | 0.00123 ± 0.00017 kPa
1029 K | 0.001445 ± 0.00023 kPa
1030 K | 0.001445 ± 0.00023 kPa
1031 K | 0.001622 ± 0.00022 kPa
1032 K | 0.001622 ± 0.00022 kPa
1033 K | 0.00166 ± 0.00022 kPa and 0.001778 ± 0.00022 kPa
1042 K | 0.002239 ± 0.00029 kPa and 0.002188 ± 0.00029 kPa and 0.002138 ± 0.00028 kPa
1046 K | 0.00263 ± 0.00029 kPa
1047 K | 0.002692 ± 0.00034 kPa
1048 K | 0.002818 ± 0.00034 kPa
1050 K | 0.002951 ± 0.00035 kPa
1051 K | 0.002951 ± 0.00034 kPa
1053 K | 0.003162 ± 0.00032 kPa
1058 K | 0.003631 ± 0.0004 kPa
1059 K | 0.003548 ± 0.0004 kPa
1060 K | 0.003715 ± 0.0004 kPa and 0.003981 ± 0.0004 kPa
1062 K | 0.00389 ± 0.00049 kPa
1066 K | 0.004467 ± 0.0006 kPa
1071 K | 0.00537 ± 0.00072 kPa and 0.004898 ± 0.00034 kPa
1075 K | 0.005495 ± 0.00046 kPa and 0.00537 ± 0.0004 kPa
